# According to PMC10831276, “A viral insulin-like peptide inhibits IGF-1 receptor phosphorylation and regulates IGF1R gene expression” (Molecular Metabolism, 2024):
# Bridge positions count the residues as written; N and C are the ends. Ends that are not written are not given here. I, II: the chains in the order shown.
# Experiments:
# [1] = system: C57BL/6 J mice; assay: Insulin tolerance test; format: in vivo, mouse
# Experimental: All animal studies presented in this study complied with the regulations and ethics guidelines of the NIH and were approved by the Boston College Institutional Animal Care and Use Committee. Insulin tolerance testing was performed on 12 to 17-week-old male C57BL/6 J mice (Jackson Laboratory). Mice were grouped according to their weight before experiment. After 6-hour starvation, mice were injected i.p. with insulin (Humulin, 6 nmol/kg, corresponds to 1.0 U/kg, 1x) (Eli Lilly), scMFRV-VILP (6 nmol/kg, 1x and 60 nmol/kg, 10x), dcMFRV-VILP (60 nmol/kg, 10x), dcLCDV-Sa-VILP (0.3 μmol/kg, 50x), and saline as a control (n = 4–11 per condition). Tail-vein blood glucose was measured until 3 h post-injection using an Infinity glucometer (US Diagnostic Inc.). Statistical analysis was done using Mixed effects analysis - Dunnett's multiple comparisons test.
# [2] = system: IGF1R gene expression; assay: IGF1R gene expression (RT-qPCR) in R+ cells after repeated stimulation with synthetic ligand; format: cell-based, human; settings: 100 nM ligand every 3 h over 24 h, normalised to β-actin, compared to basal, n = 3
# Experimental: To assess the potential impact of external VILP exposure on IGF1R gene expression, we employed R^+ cells, seeding 30 × 10^4 cells per well. Following a 24-hour incubation period, cells were washed twice with PBS and were subsequently serum-starved for 4 h before sequential stimulation with various ligands (scMFRV-VILP, dcMFRV-VILP, and IGF-1). The cells were stimulated with 100 nM of each ligand every 3 h over a 24-hour period. Post the final stimulation, the cells were snap-frozen and stored at −80 °C.
# Subsequently, the lysates were transferred to microtubes and chloroform in ratio 5:1 (Tri Reagent: chloroform) was added. The mixture was vortexed for 15s, incubated at RT for 5 min and centrifuged for 15 min at 12000g, 4 °C. The upper aqueus phase was transferred to new tubes, 100 % ethanol was added to give a 1:1 volumetric ratio and subsequently the Direct-zol RNA Miniprep Kit (Zymo Research) was used according to the manufacturer's instructions. cDNA synthesis was performed using Maxima™ H Minus cDNA Syntheis Master Mix (ThermoFisher Scientific) according to manufacturer's instructions. The qPCR was performed using Power SYBR® Green PCR Master Mix (Applied Biosystems) according to manufacturer's instructions on QuantStudio 3 (Applied Biosystems). Statistical analysis was performed using ordinary one-way ANOVA followed by Tukey's multiple comparison test.
# [3] = system: R+ cells; assay: BrdU proliferation assay of transfected R+ cells; format: cell-based, mouse; settings: 10 nM IGF-1 for 24 h; BrdU for last 6 h
# Experimental: R^+ cells (described in 2.4) were seeded into 96-well plates so that they reached ∼50 % confluency after overnight incubation. […] Three hours post transfection, Opti-MEM medium was exchanged for regular culture medium. 24 h post transfection, cells were washed once with PBS and starved in serum free culture medium. After 24 h of starvation, cells were stimulated with IGF-1 (diluted in serum free medium) to reach final concentration of 10 nM IGF-1 per well for another 24 h period (serum free medium only was added to the non-stimulated wells). To determine the rate of proliferation in each well, BrdU Cell Proliferation Assay (Sigma–Aldrich, #QIA58) was used. Manufacturer's instructions were followed, with the BrdU probe being added for the last 6 h of the 24 h stimulation with IGF-1. Absorbance at dual wavelengths of 450–540 nm was measured using a spectrophotometric plate reader. The experiment was repeated at least three times and for each biological replicate, results were expressed as relative change compared to non-stimulated cells transfected with empty vector. Statistical analysis was performed using paired two-tailed Student's t-test.
# [4] = target: T1, human IGF1R (Homo sapiens, UniProt P08069); assay: cell-based; design: expressed in transfected cells; host or cells: HEK293 cells overexpressing human IGF-1R
# Experimental: (§1) Insulin or IGF-1 receptor phosphorylation was measured as described in [13]. Briefly, HEK293 cells overexpressing human IR-A, IR-B, or IGF-1R were plated in 96-well tissue culture plates and cultured for 16–20 h at 37 °C, 5 % CO2, and 90 % humidity. […] For antagonism studies, test peptides were pre-mixed with 10 nM IGF-1. After 15 min incubation at 37 °C in humidified atmosphere with 5 % CO2, the cells were fixed with 5 % paraformaldehyde for 20 min at room temperature, washed twice with PBS (pH 7.4) and blocked with 2 % BSA in PBS for 1 h. The plate was washed three times, filled with anti-phospho-IR/IGF1R (Tyr1158) antibody (Millipore) and incubated for 3 h at room temperature, after which the plate was washed four times and filled with goat anti-rabbit secondary antibody (#A16110, ThermoFisher). Following 30 min incubation and another four washes, 0.1 mL of TMB One Solution substrate (#00-2023; Invitrogen) was added to each well. Color development was stopped 10 min later by adding 0.05 mL 1 M HCl.
# Target sequence in this assay (P08069 741-1367): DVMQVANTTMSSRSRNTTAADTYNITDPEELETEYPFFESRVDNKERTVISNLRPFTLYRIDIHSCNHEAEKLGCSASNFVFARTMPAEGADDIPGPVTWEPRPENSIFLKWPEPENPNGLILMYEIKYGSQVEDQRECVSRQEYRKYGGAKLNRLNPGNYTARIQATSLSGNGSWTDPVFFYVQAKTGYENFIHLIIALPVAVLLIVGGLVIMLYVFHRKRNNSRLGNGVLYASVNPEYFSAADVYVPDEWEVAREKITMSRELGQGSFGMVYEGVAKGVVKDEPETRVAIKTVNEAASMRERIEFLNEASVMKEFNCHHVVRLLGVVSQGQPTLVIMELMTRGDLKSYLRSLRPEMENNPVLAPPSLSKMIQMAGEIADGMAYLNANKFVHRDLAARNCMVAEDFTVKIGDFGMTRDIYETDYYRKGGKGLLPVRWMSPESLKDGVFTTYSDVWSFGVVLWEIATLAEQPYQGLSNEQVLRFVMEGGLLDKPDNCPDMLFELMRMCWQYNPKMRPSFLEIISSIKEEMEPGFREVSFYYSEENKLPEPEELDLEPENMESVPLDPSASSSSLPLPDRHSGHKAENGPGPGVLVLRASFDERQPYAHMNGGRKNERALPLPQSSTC
# Target sequence in this assay (P08069 31-736): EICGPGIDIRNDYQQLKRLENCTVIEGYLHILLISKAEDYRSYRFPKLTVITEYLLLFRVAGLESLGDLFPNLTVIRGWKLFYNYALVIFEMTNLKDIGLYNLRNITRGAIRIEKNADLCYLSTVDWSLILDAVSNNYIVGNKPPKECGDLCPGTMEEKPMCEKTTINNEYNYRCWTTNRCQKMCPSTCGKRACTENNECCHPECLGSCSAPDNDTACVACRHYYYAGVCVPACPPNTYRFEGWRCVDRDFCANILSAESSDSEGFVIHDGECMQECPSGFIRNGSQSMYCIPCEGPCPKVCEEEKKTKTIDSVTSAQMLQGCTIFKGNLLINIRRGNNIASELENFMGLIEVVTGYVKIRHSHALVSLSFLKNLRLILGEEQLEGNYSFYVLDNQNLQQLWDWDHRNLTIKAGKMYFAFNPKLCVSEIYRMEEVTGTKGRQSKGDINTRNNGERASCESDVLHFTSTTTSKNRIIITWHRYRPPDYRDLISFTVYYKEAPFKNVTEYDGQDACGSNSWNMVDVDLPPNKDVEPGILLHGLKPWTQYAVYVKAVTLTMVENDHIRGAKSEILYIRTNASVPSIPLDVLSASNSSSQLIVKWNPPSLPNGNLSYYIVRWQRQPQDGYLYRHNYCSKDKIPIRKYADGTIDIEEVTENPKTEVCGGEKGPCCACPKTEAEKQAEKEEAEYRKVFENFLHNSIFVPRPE
# [5] = target: T2, human IR-A (Homo sapiens, UniProt P06213); assay: Whole-cell binding competition assay with 125I-insulin on IM-9 lymphoblasts; design: human IM-9 lymphoblasts, that express IR-A exclusively; host or cells: human IM-9 lymphoblasts (whole cells)
# T2 sequence (P06213 763-1382): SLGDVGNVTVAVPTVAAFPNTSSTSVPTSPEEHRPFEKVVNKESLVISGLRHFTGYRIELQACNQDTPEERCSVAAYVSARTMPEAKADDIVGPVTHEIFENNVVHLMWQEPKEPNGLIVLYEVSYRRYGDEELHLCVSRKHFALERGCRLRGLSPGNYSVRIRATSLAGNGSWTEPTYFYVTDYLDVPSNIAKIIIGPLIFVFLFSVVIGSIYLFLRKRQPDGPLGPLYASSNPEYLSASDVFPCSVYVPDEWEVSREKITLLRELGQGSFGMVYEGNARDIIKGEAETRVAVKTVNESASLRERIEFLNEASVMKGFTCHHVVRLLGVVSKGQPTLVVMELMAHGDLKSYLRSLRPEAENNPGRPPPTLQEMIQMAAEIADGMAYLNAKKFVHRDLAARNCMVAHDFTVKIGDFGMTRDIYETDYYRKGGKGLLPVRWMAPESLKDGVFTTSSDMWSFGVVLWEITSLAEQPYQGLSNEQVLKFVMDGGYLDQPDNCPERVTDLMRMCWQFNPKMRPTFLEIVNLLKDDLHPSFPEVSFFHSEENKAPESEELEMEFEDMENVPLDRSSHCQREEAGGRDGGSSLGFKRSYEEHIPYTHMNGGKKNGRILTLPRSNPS
# T2 sequence (P06213 other isoform, or with tags, fused parts or gaps): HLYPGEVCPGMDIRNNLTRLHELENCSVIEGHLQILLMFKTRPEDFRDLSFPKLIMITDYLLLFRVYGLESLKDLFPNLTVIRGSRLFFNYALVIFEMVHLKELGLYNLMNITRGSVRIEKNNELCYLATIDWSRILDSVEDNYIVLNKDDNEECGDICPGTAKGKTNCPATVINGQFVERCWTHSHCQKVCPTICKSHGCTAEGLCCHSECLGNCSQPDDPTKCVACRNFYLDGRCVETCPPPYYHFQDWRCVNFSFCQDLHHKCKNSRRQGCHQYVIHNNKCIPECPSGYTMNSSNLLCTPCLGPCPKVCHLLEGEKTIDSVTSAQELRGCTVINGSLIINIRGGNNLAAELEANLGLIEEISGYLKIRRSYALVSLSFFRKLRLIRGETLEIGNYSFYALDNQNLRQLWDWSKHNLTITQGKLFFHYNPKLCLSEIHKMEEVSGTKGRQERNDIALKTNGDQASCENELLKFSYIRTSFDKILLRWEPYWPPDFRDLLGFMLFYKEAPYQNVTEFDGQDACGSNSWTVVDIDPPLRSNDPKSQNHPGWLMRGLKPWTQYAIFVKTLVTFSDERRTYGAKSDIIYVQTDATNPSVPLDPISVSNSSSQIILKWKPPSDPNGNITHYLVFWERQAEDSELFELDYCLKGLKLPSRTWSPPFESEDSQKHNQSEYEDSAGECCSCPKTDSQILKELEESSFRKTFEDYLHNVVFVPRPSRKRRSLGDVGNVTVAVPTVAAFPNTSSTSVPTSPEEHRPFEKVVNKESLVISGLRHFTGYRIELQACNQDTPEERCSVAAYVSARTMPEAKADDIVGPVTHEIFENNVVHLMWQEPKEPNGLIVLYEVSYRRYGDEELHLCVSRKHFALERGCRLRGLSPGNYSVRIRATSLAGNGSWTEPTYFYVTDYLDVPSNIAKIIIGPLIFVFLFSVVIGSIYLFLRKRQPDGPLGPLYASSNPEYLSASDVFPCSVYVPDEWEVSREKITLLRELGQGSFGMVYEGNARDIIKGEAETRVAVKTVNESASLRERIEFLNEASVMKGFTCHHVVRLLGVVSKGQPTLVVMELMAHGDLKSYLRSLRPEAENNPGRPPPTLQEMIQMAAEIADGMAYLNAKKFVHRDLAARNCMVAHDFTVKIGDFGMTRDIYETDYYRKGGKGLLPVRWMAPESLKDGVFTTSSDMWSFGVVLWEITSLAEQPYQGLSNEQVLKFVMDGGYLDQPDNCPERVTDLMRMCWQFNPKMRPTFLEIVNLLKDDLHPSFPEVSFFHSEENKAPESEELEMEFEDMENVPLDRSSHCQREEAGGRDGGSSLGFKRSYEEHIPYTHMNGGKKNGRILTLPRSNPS
# Experimental: (§2) For receptor binding studies, human IM-9 lymphoblasts, that express IR-A exclusively, and R^−/IR-B and R^+ murine embryonic fibroblasts were used for a whole-cell receptor-binding assay. Receptor binding assays on IR-A were perfomed accoding to Morcavallo et al. [24]and binding assays on IR-B and IGF1R were performed according to Kosinova et al.. […] Human ^125I-insulin was prepared as described by Asai et al. and human ^125I-IGF-1 was prepared as described in Kertisova et al..
# [6] = target: T1, human IGF1R; assay: Whole-cell binding competition assay with 125I-IGF-1 on R+ fibroblasts; design: expressed in transfected cells; host or cells: murine embryonic fibroblasts from IGF1R knockout mice, stably transfected with IGF1R (R+ cells); settings: competition with 125I-IGF-1, R+ cells; mean ± S.D. (n), n ≥ 3; measurement series #; SD
# Experimental: as §2
# Target sequence in this assay (P08069 31-736): as the sequence (P08069 31-736) above
# Target sequence in this assay (P08069 741-1367): as the sequence (P08069 741-1367) above
# [7] = target: T3, human IR-B (Homo sapiens, UniProt P06213); assay: Whole-cell binding competition assay with 125I-insulin on R-/IR-B fibroblasts; settings: competition with 125I-insulin, R-/IR-B cells; mean ± S.D. (n), n ≥ 3; measurement series #; SD
# T3 construct: expressed in transfected cells; host or cells: murine embryonic fibroblasts from IGF1R knockout mice, stably transfected with IR-B (R-/IR-B cells)
# T3 sequence (P06213 28-758 limits assumed): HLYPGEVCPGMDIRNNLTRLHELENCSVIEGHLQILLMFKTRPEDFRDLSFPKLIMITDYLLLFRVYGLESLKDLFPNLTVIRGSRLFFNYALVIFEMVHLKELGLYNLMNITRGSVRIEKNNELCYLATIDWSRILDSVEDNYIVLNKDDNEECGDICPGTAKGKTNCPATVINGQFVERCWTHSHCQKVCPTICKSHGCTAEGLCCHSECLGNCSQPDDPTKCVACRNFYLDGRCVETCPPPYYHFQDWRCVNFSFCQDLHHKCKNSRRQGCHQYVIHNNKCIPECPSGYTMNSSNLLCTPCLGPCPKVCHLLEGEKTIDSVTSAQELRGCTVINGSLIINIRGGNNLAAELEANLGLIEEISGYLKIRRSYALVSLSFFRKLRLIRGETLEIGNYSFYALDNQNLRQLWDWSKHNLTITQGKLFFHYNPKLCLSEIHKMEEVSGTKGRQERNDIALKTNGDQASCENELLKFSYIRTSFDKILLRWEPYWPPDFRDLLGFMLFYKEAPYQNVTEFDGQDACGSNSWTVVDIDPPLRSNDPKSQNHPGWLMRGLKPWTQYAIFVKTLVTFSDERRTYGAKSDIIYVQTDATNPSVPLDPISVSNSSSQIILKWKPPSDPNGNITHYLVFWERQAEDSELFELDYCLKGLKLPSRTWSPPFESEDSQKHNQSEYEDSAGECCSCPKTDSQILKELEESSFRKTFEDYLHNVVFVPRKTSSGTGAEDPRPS
# T3 sequence (P06213 763-1382 limits assumed): as the sequence (P06213 763-1382) above
# Experimental: as §2
# [8] = target: T2, human IR-A; assay: cell-based; design: human IM-9 lymphoblasts, that express IR-A exclusively
# Experimental: as §1
# [9] = system: IR-B; assay: Insulin/IGF signaling via IR-B in R-/IR-B cells (western blot); format: cell-based, human; settings: 0.1-500 nM, 30 min
# Experimental: For receptor phosphorylation and downstream signaling experiments, R^−/IR-A, R^−/IR-B and R^+ cells (described in 2.4) were used to explore signaling properties of ligands via specific receptors. Cells were seeded into 24-well plates (10^5 cells per well) in 300 μl of culture medium (described above) and grown overnight. Afterwards, cells were washed twice with PBS and starved in serum-free culture medium for 4 h. After the starvation, cells were washed with pure DMEM medium and incubated with ligand diluted in pure DMEM medium (0, 0.1, 1, 10, 100, 250 and 500 nM) in 37 °C for 30 min. For co-incubation of a VILP with 10 nM insulin/IGF-1, increasing concentrations of the VILP were pre-mixed with insulin or IGF-1 prior stimulation of cells. The reaction was terminated by washing the cells with ice-cold PBS (HyClone) followed by snap freezing in liquid nitrogene. […] Protein concentration in each sample was evaluated using BCA Assay (Thermo Fisher Scientific). Samples were further diluted using sample buffer for SDS-PAGE (final concentration 62.5 mM Tris, 2 % SDS (w/v), 10 % glycerol (v/v). 0.01 % bromphenol blue (w/v), 0.1 M DTT (w/v), pH 6.8 (HCl)) and routinely analyzed using SDS-PAGE and immunoblotting. […] Western blots were quantified using Image Lab 6.0.1 (Bio-Rad). […]
substance,measurement,setting,value
"Human insulin: human insulin, supplied by Merck; Humulin (Eli Lilly) in the insulin tolerance test [reference compound]",maximum decrease in blood glucose levels,"[1]; 6 nmol/kg (1x) i.p., male C57BL/6 J mice, 6 h starved",~60%
"Human IGF-1: human insulin like growth factor-1, supplied by Merck [reference compound]",decrease of IGF-1R gene expression,[2],neither dcMFRV-VILP nor IGF-1 demonstrated a similar effect
same,increase in cell proliferation in cells transfected with empty vector,[3],2.2 fold
"I: ILAQTLCGSELVDALELVCGEYGGIYRPPK / II: KIVDVCCTTKGCNYMDLKQYCN (disulfide I:7-II:7, I:19-II:21, II:6-II:12) [dcLCDV-Sa]",EC50,[4],282 nM
same,Kd,"[5]; competition with 125I-insulin, IM-9 cells, mean ± S.D. (n), n ≥ 3 binding curves each in duplicate, measurement series #, SD",487 ± 287 nM
same,Kd,[6],639 ± 453 nM
same,Kd,[7],994 ± 55 nM
same,EC50,[8],198 nM
"I: VLTDKLCGKDLVDALLLVCGEKGVYSPKMG / II: GIADVCCTSANGCDLNFLEKFCKT (disulfide I:7-II:7, I:19-II:22, II:6-II:13) [dcMFRV]","affinity on IR-A, fold stronger than IGF-1",[5]; ratio of Kd values,1.5 fold
same,"fold difference in IR-A affinity, dcMFRV-VILP higher than the sc form",[5]; ratio of Kd values,about 3 fold
same,glucose-lowering effect,"[1]; 60 nmol/kg (10x) i.p., dcMFRV-VILP",comparable effect to scMFRV-VILP (1x)
same,decrease of IGF-1R gene expression,[2],neither dcMFRV-VILP nor IGF-1 demonstrated a similar effect
same,maximum response of IR-B autophosphorylation compared to 10 nM insulin,[9],comparable maximum response
